Patent publication US9290427B2, “Anti-invasive compounds” (Universiteit Gent, priority 2012, dated 2016)

What was measured:
[1] = tested on: HCT8-E11 colon carcinoma cells; assay: MTT test, HCT8-E11; format: cell-based, human
Protocol: (§1) An MTT test provides an indication of cell viability, proliferation and activity through determination of the mitochondrial conversion of 3-(4,5-dimethylthiazol-2-yl)-2,5-diphenyltetrazolium bromide (MTT), a yellow salt, into formazan, a salt that precipitates under the form of blue crystals.
(§2) In concreto, 5,000 cells are seeded in a cup of a 96 well-plate, treated with the desired amount of the test substance, and incubated for a chosen period of time. Next, 40 μL of a filtered (0.2 μm) 5 mg·mL^−1 solution of MTT in PBS is added to the cup. After 2 h of incubation at 37° C. in the dark, all liquid is removed. The obtained formazan salts are dissolved in 200 μL of DMSO, whereupon optical density is measured at 490 nm.
(§3) In order to verify whether the antiproliferative effects of compound 49, witnessed in BLM and MCF-7/6 cells at high concentrations, were cell specific, additional SRB and MTT assays on a further five cell lines (HCT8-E11, TR146, FaDu, 3T3-L1 and CT5.3) were conducted (FIG. 8). The results for MCF-7/6 cells were added to facilitate comparison.
(§4) The CT5.3 cell line consists of human myofibroblasts which were isolated from a colon tumor (Van Hoorde et al., 1999). 3T3-L1 cells are murine fibroblasts, originating from embryo's of Swiss mice (Todaro and Green, 1963). HCT8-E11, FaDu and TR146 are human epithelial cancer cell lines. […]

CT5.3 myofibroblasts = assay: SRB test, CT5.3; format: cell-based, human; conditions: 10 μmol·L−1, 24 h, decreasing trend, not significant
Protocol: The SRB assay is used to evaluate growth effects on cells, and measures the total protein content. In this test, 5,000 cells are seeded in a cup of a 96-well plate. Upon a 24 h-attachment period, cells are treated with a certain amount of the test molecule (dissolved in DMSO). After a pre-chosen incubation time, cells are fixed with 50 μL of 50% trichloroacetic acid (2° C., 1 h). Afterward, the plate is rinsed five times with tap water, and air dried overnight.
Next, proteins are stained with 75 μL of a 0.4% solution of SRB in AcOH (30 min). Unbound SRB is subsequently removed by washing with a 1% solution of glacial AcOH, whereupon the plate is air dried. Then, bound SRB is redissolved in 100 μL of a 10 mmol·L^−1 tris(hydroxymethyl)aminomethane (Tris) buffer (pH=10.5), after which optical density is determined at 490 nm with a spectrophotometer.
as §3
The CT5.3 cell line consists of human myofibroblasts which were isolated from a colon tumor (Van Hoorde et al., 1999). […]

FaDu cells = assay: MTT test, FaDu; format: cell-based, human
Protocol: as §1, §2, §3, §4

[2] = tested on: MCF-7/6 mammary carcinoma cells; assay: chick heart invasion assay; format: cell-based, human; set-up: unit not given here
Source text: “Anti-invasive” or “anti-invasive activity” is the ability to inhibit the invasiveness of tumor cells. Invasion by tumor cells is defined as the progressive occupation and destruction of their environment, and is the result of matrix degradation and directional cell motility. Anti-invasive activity of a compound is the ability to inhibit or block invasion, and can be assessed by counting the number of invading cells, by the depth of their invasion and/or by the amount of environmental destruction. Many assays in vitro can be applied to test for anti-invasive activity (for a complete list see Bracke et al. 2008). The three most popular ones are: • Chick heart invasion assay (Bracke et al., 2001, see details below). The cut-off value is between grade II (non-invasive) and grade III (invasive). […] Collagen gels, prepared on the bottom of plastic wells are covered with a test cell suspension, and incubated with liquid culture medium for 24 h. Invasion is evaluated with an inverted phase-contrast microscope, and is based on the percentage of cells showing extensions in the gel. […] Matrigel is a mixture of basement membrane components, and is applied as a semi-solid layer on top a filter with pores allowing the transgression of cells. The test cell suspension is seeded on top of the gel, and incubated for 1 day in a two-compartment chamber system. Invasion is then evaluated via the percentage of cells that are attached to the lower side of the filter.
In the chick heart invasion assay cancer cells are confronted with a fragment of normal tissue, so as not to neglect the contribution of the host tissue in the micro-ecosystem that governs tumor behavior. As such, precultured heart tissue fragments (PHFs), dissected from 9-day-old chicken embryos, may be confronted with aggregates of human invasive MCF-7/6 mammary carcinoma cells in the presence of a certain concentration of a test compound. After eight days, the interaction between the cancer cells and the PHF is evaluated histologically and classified along a 5-grades subjective scale (Bracke et al., 2001). Grades III and IV are typical for invasion, while grades 0, I and II correspond to absence of invasion. Compounds that inhibit invasion of confronting cancer cells i.e. from III/IV to 0/I/II, are determined as anti-invasive. Possible alternative assays generally known in the art are the type I collagen invasion assay, wound healing assay and the matrigel invasion assay.
“Anti-invasive” refers to the ability to inhibit invasion of the tumor or cancer cell into surrounding tissue (within or outside the organ of origin). […] This screening method confronts cancer cells with a fragment of normal tissue, so as not to neglect the contribution of the host tissue in the micro-ecosystem that governs tumor behavior. The interaction between the cancer cells and the normal tissue is evaluated histologically and classified along a 5-grades subjective scale. Grades III and IV are typical for invasion, while grades 0, I and II correspond to absence of invasion. Compounds that inhibit invasion of confronting cancer cells i.e. from III/IV to 0/I/II, are determined as anti-invasive. Possible alternative assays generally known in the art are the type I collagen invasion assay and the Matrigel invasion assay.
The potency of these molecules had been evaluated by means of the chick heart invasion assay, as described herein before.

3T3-L1 cells = assay: MTT test, 3T3-L1; format: cell-based, murine; conditions: 10 μmol·L−1, 24 h
Protocol: as §1, §2, §3, §4

COc1cc(C(=O)/C=C/c2ccc(F)cc2)cc(OC)c1OC [Compound 49, (2E)-3-(4-Fluorophenyl)-1-(3,4,5-trimethoxyphenyl)propenone]
reduction in mitochondrial activity ([1]; 10 μmol·L−1, 24 h): 40% | reduction in mitochondrial activity ([1]; elevated concentrations 10-100 μmol·L−1, summary): ~50% | change in total protein content (CT5.3 myofibroblasts): −15% | mitochondrial activity (FaDu cells; 1 μmol·L−1, 24 h): the same trend, but without significance | reduction in mitochondrial activity (FaDu cells; 10 μmol·L−1, 24 h): 30% | Actual in vitro activity class ([2]; compounds 37-51, Table 11): −2 (about 0.01) | Actual class ([2]; training set compounds 37-51, class = log cmin, lowest concentration with invasion grade I or II): −2 (about 0.01) | reduction in mitochondrial activity (3T3-L1 cells): 30%
